Source: PubChem BioAssay AID248 (DTP/NCI, 2004)
Several values for one entry are separate records, joined by “and”; a condition that tells them apart may be missing. Identical values can stand only once. Toxic doses and inconclusive results are not listed. No stated cut-off is given here; in the data, active means T/C of 150% or more; inactive means T/C below 125%.

System: L1210 leukemia ip in BDF1 mice, survival T/C
Test: NCI In Vivo Anticancer Drug Screen. Data for tumor model L1210 Leukemia (intraperitoneal) in B6D2F1 (BDF1) mice
Settings: endpoint: mean survival time, higher = longer survival
Outline: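 Mice bearing the transplanted tumor received compound or vehicle. Survival of the treated group was divided by that of the vehicle-treated control group to give the ratio.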

[1] = dose: 100.0 mg/kg/injection, schedule: Q01DX001 (ip), vehicle: carboxymethylcellulose (CMC)
[2] = dose: 200.0 mg/kg/injection, schedule: Q01DX001 (ip), vehicle: carboxymethylcellulose (CMC)
[3] = dose: 400.0 mg/kg/injection, schedule: Q01DX001 (ip), vehicle: carboxymethylcellulose (CMC)
[4] = dose: 100.0 mg/kg/injection, schedule: Q04DX003 (ip), vehicle: Klucel (hydroxypropylcellulose) (HPC)
[5] = dose: 200.0 mg/kg/injection, schedule: Q04DX003 (ip), vehicle: Klucel (hydroxypropylcellulose) (HPC)
[6] = dose: 400.0 mg/kg/injection, schedule: Q04DX003 (ip), vehicle: Klucel (hydroxypropylcellulose) (HPC)
[7] = dose: 100.0 mg/kg/injection, schedule: Q04DX003 (ip), vehicle: saline with Tween-80
[8] = dose: 200.0 mg/kg/injection, schedule: Q04DX003 (ip), vehicle: saline with Tween-80
[9] = dose: 100.0 mg/kg/injection, schedule: Q01DX001 (ip), vehicle: saline
[10] = dose: 200.0 mg/kg/injection, schedule: Q01DX001 (ip), vehicle: saline
[11] = dose: 400.0 mg/kg/injection, schedule: Q01DX001 (ip), vehicle: saline

Measured: T/C

CCCCN(C)/N=N/c1nc[nH]c1C(=O)OCC
inactive: [1] 96 % of control | [2] 109 % of control | [3] 124 % of control

CCOC(=O)C1C=NC([N+](=O)[O-])=C1Br (configuration not stated)
inactive: dose: 25.0 mg/kg/injection, schedule: Q04DX002 (ip), vehicle: Klucel (hydroxypropylcellulose) (HPC) 102 % of control | dose: 50.0 mg/kg/injection, schedule: Q04DX002 (ip), vehicle: Klucel (hydroxypropylcellulose) (HPC) 109 % of control | dose: 100.0 mg/kg/injection, schedule: Q04DX002 (ip), vehicle: Klucel (hydroxypropylcellulose) (HPC) 103 % of control and 105 % of control | dose: 400.0 mg/kg/injection, schedule: Q04DX002 (ip), vehicle: Klucel (hydroxypropylcellulose) (HPC) 93 % of control

CCOc1ccc(N=Nc2c(C)nn(C(N)=S)c2-c2ccccc2)cc1
inactive: dose: 10.0 mg/kg/injection, schedule: Q01DX001 (ip), vehicle: saline 103 % of control | dose: 20.0 mg/kg/injection, schedule: Q01DX001 (ip), vehicle: saline 94 % of control | dose: 40.0 mg/kg/injection, schedule: Q01DX001 (ip), vehicle: saline 88 % of control

CCCCOC(=O)Nc1cc(Cl)ccc1C
inactive: dose: 100.0 mg/kg/injection, schedule: Q01DX001 (ip), vehicle: gum acacia 95 % of control | dose: 200.0 mg/kg/injection, schedule: Q01DX001 (ip), vehicle: gum acacia 96 % of control | dose: 400.0 mg/kg/injection, schedule: Q01DX001 (ip), vehicle: gum acacia 98 % of control

Cc1cc[c]([Hg][c]2ccc(C)cc2)cc1
inactive: [4] 97 % of control | [5] 103 % of control | [6] 94 % of control

COc1cc(OC)c(Oc2cc(OC)c(OC)c(OC)c2)c(OC)c1
inactive: [7] 97 % of control | [8] 103 % of control | dose: 400.0 mg/kg/injection, schedule: Q04DX003 (ip), vehicle: saline with Tween-80 101 % of control

CCSCC1OC(n2cnc3c(N)ncnc32)CC1SCC (configuration not stated)
inactive: dose: 50.0 mg/kg/injection, schedule: Q01DX001 (ip), vehicle: carboxymethylcellulose (CMC) 104 % of control | [1] 104 % of control | [9] 98 % of control | [2] 111 % of control | [10] 89 % of control | [3] 101 % of control | [11] 92 % of control

CCN=C(c1ccc(NC(=O)c2ccc(C(=O)Nc3ccc(C(=NCC)N(CC)C(=O)CC(C)C)cc3)cc2)cc1)N(CC)C(=O)CC(C)C
inactive: dose: 3.12 mg/kg/injection, schedule: Q01DX015 (ip), vehicle: methylcellulose (MC) 96 % of control | dose: 6.25 mg/kg/injection, schedule: Q01DX015 (ip), vehicle: methylcellulose (MC) 96 % of control | dose: 12.5 mg/kg/injection, schedule: Q01DX015 (ip), vehicle: methylcellulose (MC) 92 % of control | dose: 25.0 mg/kg/injection, schedule: Q01DX015 (ip), vehicle: methylcellulose (MC) 93 % of control | dose: 50.0 mg/kg/injection, schedule: Q01DX015 (ip), vehicle: methylcellulose (MC) 96 % of control | dose: 100.0 mg/kg/injection, schedule: Q01DX015 (ip), vehicle: methylcellulose (MC) 88 % of control | dose: 200.0 mg/kg/injection, schedule: Q01DX015 (ip), vehicle: methylcellulose (MC) 94 % of control

NC(=S)N/N=C/c1ccc2c(c1)OCO2
inactive: [7] 95 % of control | [8] 103 % of control

CCOC(=O)C1CC2(SCCS2)C(C(=O)O)CC12SCCS2 (configuration not stated)
inactive: dose: 100.0 mg/kg/injection, schedule: Q04DX003 (ip), vehicle: other 103 % of control | dose: 200.0 mg/kg/injection, schedule: Q04DX003 (ip), vehicle: other 92 % of control | dose: 400.0 mg/kg/injection, schedule: Q04DX003 (ip), vehicle: other 97 % of control

CCN(CC)CCCC(C)Nc1ccnc2c1ccc1ccccc12 (configuration not stated)
inactive: dose: 50.0 mg/kg/injection, schedule: Q01DX001 (ip), vehicle: saline 98 % of control | [9] 101 % of control | [10] 106 % of control | [11] 112 % of control

C=C(C(=O)OC1CC2CCC(C1)N2C)c1ccccc1 (configuration not stated)
inactive: dose: 1.25 mg/kg/injection, schedule: Q01DX Z (ip), vehicle: saline 90 % of control | dose: 1.25 mg/kg/injection, schedule: Q04DX003 (ip), vehicle: Klucel (hydroxypropylcellulose) (HPC) 113 % of control | dose: 2.5 mg/kg/injection, schedule: Q01DX Z (ip), vehicle: saline 105 % of control | dose: 2.5 mg/kg/injection, schedule: Q04DX003 (ip), vehicle: Klucel (hydroxypropylcellulose) (HPC) 101 % of control | dose: 5.0 mg/kg/injection, schedule: Q01DX Z (ip), vehicle: saline 97 % of control | dose: 5.0 mg/kg/injection, schedule: Q04DX003 (ip), vehicle: Klucel (hydroxypropylcellulose) (HPC) 107 % of control | dose: 10.0 mg/kg/injection, schedule: Q01DX001 (ip), vehicle: carboxymethylcellulose (CMC) 111 % of control | dose: 10.0 mg/kg/injection, schedule: Q04DX003 (ip), vehicle: Klucel (hydroxypropylcellulose) (HPC) 106 % of control | dose: 20.0 mg/kg/injection, schedule: Q01DX001 (ip), vehicle: carboxymethylcellulose (CMC) 93 % of control

NC(=S)N/N=C/c1cc(Br)c(O)c(Br)c1
inactive: dose: 100.0 mg/kg/injection, schedule: Q01DX009 (ip), vehicle: Klucel (hydroxypropylcellulose) (HPC) 104 % of control | dose: 200.0 mg/kg/injection, schedule: Q01DX009 (ip), vehicle: Klucel (hydroxypropylcellulose) (HPC) 91 % of control | dose: 400.0 mg/kg/injection, schedule: Q01DX009 (ip), vehicle: Klucel (hydroxypropylcellulose) (HPC) 98 % of control

CCC(CCl)NC(=O)N(N=O)C(CC)CCl (configuration not stated)
inactive: dose: 16.0 mg/kg/injection, schedule: Q01DX001 (ip), vehicle: carboxymethylcellulose (CMC) 96 % of control | dose: 31.0 mg/kg/injection, schedule: Q01DX001 (ip), vehicle: carboxymethylcellulose (CMC) 102 % of control | dose: 62.0 mg/kg/injection, schedule: Q01DX001 (ip), vehicle: carboxymethylcellulose (CMC) 95 % of control | dose: 125.0 mg/kg/injection, schedule: Q01DX001 (ip), vehicle: carboxymethylcellulose (CMC) 101 % of control | dose: 250.0 mg/kg/injection, schedule: Q01DX001 (ip), vehicle: carboxymethylcellulose (CMC) 91 % of control | dose: 375.0 mg/kg/injection, schedule: Q01DX001 (ip), vehicle: carboxymethylcellulose (CMC) 91 % of control | dose: 500.0 mg/kg/injection, schedule: Q01DX001 (ip), vehicle: carboxymethylcellulose (CMC) 101 % of control | dose: 750.0 mg/kg/injection, schedule: Q01DX001 (ip), vehicle: carboxymethylcellulose (CMC) 91 % of control | dose: 1000.0 mg/kg/injection, schedule: Q01DX001 (ip), vehicle: carboxymethylcellulose (CMC) 93 % of control | dose: 1500.0 mg/kg/injection, schedule: Q01DX001 (ip), vehicle: carboxymethylcellulose (CMC) 98 % of control

O=C1c2cccc3cccc(c23)C(=O)N1Cc1ccccc1
inactive: [9] 95 % of control | [10] 103 % of control | [11] 91 % of control

O=C(COc1c(Cl)cc(Cl)cc1Cl)Nc1cccnc1
inactive: dose: 100.0 mg/kg/injection, schedule: Q01DX001 (ip), vehicle: Klucel (hydroxypropylcellulose) (HPC) 100 % of control | dose: 200.0 mg/kg/injection, schedule: Q01DX001 (ip), vehicle: Klucel (hydroxypropylcellulose) (HPC) 100 % of control | dose: 400.0 mg/kg/injection, schedule: Q01DX001 (ip), vehicle: Klucel (hydroxypropylcellulose) (HPC) 107 % of control

O=C(Nc1ccccc1)OC1CCCC2CCCCC21 (configuration not stated)
inactive: [4] 96 % of control | [5] 96 % of control | [6] 93 % of control

CCCCNC(C)(C)C(SS)c1ccco1 (configuration not stated)
inactive: dose: 12.5 mg/kg/injection, schedule: Q04DX003 (ip), vehicle: alcohol 104 % of control | dose: 25.0 mg/kg/injection, schedule: Q01DX009 (ip), vehicle: saline 97 % of control | dose: 25.0 mg/kg/injection, schedule: Q04DX003 (ip), vehicle: alcohol 101 % of control | dose: 50.0 mg/kg/injection, schedule: Q01DX009 (ip), vehicle: saline 92 % of control | dose: 50.0 mg/kg/injection, schedule: Q04DX003 (ip), vehicle: alcohol 96 % of control | dose: 100.0 mg/kg/injection, schedule: Q01DX009 (ip), vehicle: saline 98 % of control | dose: 100.0 mg/kg/injection, schedule: Q04DX003 (ip), vehicle: alcohol 101 % of control | dose: 150.0 mg/kg/injection, schedule: Q01DX009 (ip), vehicle: saline with Tween-80 92 % of control | dose: 200.0 mg/kg/injection, schedule: Q04DX003 (ip), vehicle: alcohol 104 % of control
